Experimental data as given in PMC7340851 (Bioorganic & medicinal chemistry, 2020).
Like-named read-outs stand apart in the source and are kept apart here.

Key:
[1] = biological target: 5-HT2AR (Homo sapiens, UniProt P28223); assay: 5-HT2AR radioligand binding assay
[2] = biological target: 5-HT6R (Homo sapiens, UniProt P50406); assay: 5-HT6R radioligand binding assay; conditions: [3H]LSD radioligand; triplicate; na = not active (<50% inhibition in a primary assay)
[3] = biological target: 5-HT7AR (Homo sapiens, UniProt P34969); assay: 5-HT7AR radioligand binding assay
Sequence of 5-HT7AR (P34969 1-445 isoform P34969-2): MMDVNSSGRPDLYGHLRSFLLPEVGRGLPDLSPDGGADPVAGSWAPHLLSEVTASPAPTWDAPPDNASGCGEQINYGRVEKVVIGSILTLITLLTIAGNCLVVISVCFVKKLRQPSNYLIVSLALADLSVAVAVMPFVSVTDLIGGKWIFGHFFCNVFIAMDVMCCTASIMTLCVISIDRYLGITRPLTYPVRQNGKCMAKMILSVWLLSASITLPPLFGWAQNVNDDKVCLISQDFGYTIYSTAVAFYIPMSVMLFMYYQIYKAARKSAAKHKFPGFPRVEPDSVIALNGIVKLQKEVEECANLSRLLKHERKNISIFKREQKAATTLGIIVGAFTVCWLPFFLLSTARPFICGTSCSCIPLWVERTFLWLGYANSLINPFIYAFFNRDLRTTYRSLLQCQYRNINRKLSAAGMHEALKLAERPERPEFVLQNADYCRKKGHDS

[4] = biological target: D5R (Homo sapiens, UniProt P21918); assay: D5R radioligand binding assay; conditions: triplicate; na = not active (<50% inhibition in a primary assay)
Sequence of D5R (P21918 whole entry): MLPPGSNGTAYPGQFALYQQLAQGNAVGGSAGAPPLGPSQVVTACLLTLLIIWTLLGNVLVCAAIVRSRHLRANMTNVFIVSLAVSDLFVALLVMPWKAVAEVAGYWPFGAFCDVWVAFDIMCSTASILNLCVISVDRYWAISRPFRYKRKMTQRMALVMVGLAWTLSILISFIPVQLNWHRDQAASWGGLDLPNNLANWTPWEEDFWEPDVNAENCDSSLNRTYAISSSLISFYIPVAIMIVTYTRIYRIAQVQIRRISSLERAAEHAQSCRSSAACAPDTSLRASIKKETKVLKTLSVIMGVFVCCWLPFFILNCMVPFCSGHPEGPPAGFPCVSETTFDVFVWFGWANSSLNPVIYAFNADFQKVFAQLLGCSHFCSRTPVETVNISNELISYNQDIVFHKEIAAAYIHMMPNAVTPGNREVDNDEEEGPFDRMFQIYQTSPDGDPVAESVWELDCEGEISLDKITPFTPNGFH

[5] = [3H]Ketanserin radioligand, triplicate, na = not active (<50% inhibition in a primary assay)

Sequence of 5-HT2AR (P28223 whole entry): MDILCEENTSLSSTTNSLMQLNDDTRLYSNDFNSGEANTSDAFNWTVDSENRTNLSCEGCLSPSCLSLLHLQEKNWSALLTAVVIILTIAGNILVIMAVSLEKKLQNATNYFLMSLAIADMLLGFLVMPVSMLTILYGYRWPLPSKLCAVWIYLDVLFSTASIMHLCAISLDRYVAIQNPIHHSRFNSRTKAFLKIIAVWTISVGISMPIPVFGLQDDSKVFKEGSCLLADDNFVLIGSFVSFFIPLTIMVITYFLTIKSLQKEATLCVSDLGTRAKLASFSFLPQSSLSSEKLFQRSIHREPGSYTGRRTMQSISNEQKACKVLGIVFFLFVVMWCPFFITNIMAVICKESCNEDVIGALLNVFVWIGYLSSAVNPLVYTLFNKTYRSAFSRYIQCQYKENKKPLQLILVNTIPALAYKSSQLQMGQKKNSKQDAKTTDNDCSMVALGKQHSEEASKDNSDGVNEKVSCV
Sequence of 5-HT6R (P50406 whole entry): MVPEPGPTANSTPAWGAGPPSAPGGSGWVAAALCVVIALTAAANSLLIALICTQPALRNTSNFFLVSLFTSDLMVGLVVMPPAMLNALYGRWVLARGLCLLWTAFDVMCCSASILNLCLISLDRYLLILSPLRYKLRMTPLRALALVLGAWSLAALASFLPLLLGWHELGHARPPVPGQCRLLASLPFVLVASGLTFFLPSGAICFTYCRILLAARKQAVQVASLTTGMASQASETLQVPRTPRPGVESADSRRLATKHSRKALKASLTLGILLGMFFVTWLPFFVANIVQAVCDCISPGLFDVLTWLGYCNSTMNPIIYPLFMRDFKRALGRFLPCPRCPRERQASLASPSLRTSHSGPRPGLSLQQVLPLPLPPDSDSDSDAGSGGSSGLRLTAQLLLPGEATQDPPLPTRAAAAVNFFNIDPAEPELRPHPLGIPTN

Row | Structure (SMILES) | Ki 5-HT2AR [1, 5] | Ki D5R [4] | further results
1 | COc1cc2c3c(c1OC)-c1cc(NS(C)(=O)=O)ccc1CC3N(C)CC2 (centres unmarked) [Compound 15, N-(1,2-dimethoxy-6-methyl-5,6,6a,7-tetrahydro-4H-dibenzo[de,g]quinolin-10-yl)methanesulfonamide] | lack of affinity | – | –
2 | COc1cc2c3c(c1OC)-c1cc(NC(N)=O)ccc1CC3N(C)CC2 (centres unmarked) [Compound 19, 1-(1,2-dimethoxy-6-methyl-5,6,6a,7-tetrahydro-4H-dibenzo[de,g]quinolin-10-yl)urea] | lack of affinity | – | –
3 | CCCN1CCc2cccc3c2C1Cc1ccc(NC(C)=O)cc1-3 (centres unmarked) [Compound 25, N-(6-propyl-5,6,6a,7-tetrahydro-4H-dibenzo[de,g]quinolin-10-yl)acetamide] | no affinity | – | Ki 5-HT6R [2]: no affinity; Ki 5-HT7AR ([3]; [3H]LSD radioligand, triplicate, na = not active (<50% inhibition in a primary assay)): no affinity
4 | CN1CCc2cccc3c2C1Cc1ccc(NC(N)=O)cc1-3 (centres unmarked) [Compound 29, 1-(6-methyl-5,6,6a,7-tetrahydro-4H-dibenzo[de,g]quinolin-10-yl)urea] | – | lacked affinity | –
5 | CN(C)c1ccc2c(c1)-c1cccc3c1C(C2)N(C)CC3 (centres unmarked) [Compound 31, N,N,6-trimethyl-5,6,6a,7-tetrahydro-4H-dibenzo[de,g]quinolin-10-amine] | – | – | Ki 5-HT2AR [1]: fairly weak affinity; Ki 5-HT6R [2]: fairly weak affinity
6 | CN1CCc2cccc3c2C1Cc1ccc2nc(N)sc2c1-3 (centres unmarked) [Compound 33a, 7-methyl-6a,7,8,9-tetrahydro-6H-benzo[de]thiazolo[4’,5’:5,6]benzo[1,2-g]quinolin-2-amine] | – | no affinity | selectivity for 5-HT7AR versus 5-HT1AR ([3]; ratio of binding affinities): approximately 19 fold
7 | CCCN1CCc2cccc3c2C1Cc1cc2sc(N)nc2cc1-3 (centres unmarked) [Compound 34b, 6-propyl-5,6,6a,7-tetrahydro-4H-benzo[de]thiazolo[5’,4’:4,5]benzo[1,2-g]quinolin-10-amine] | – | lack of affinity | –
